Source: patent US8124610B2, “Sodium channel inhibitors” (Icagen Inc., priority 2007, dated 2012)

Molecular target: T1, hSCN9A (Homo sapiens, UniProt Q15858)
T1 construct: expressed in transfected cells
Assay: Whole-cell patch-clamp electrophysiology (conventional or PatchXpress), HEK cells expressing hSCN9A, estimated IC-50
Format: cell-based
Details: estimated IC-50, HEK cells expressing hSCN9A; class symbols or bounds; read-out: SCN9A EIC-50
Method: Human Embryonic Kidney (HEK) cells were transfected with hSCN3A or hSCN9A constructs using lipofectamine reagent (Invitrogen), using standard techniques. Cells stably expressing the hSCN3A or hSCN9A constructs were identified by their resistance to G-418 (400 μg/ml). Clones were screened for expression using the whole-cell voltage-clamp technique. HEK cells stably transfected with hSCN3A or hSCN9A were maintained in DMEM medium supplemented with 10% heat-inactivated fetal bovine serum and 400 μg/ml G418 sulfate in an incubator at 37° C. with a humidified atmosphere of 10% CO2. For HTS, cells were harvested from flasks by trypsinization and replated in an appropriate multi-well plate (typically 96 or 384 wells/plate) such that confluence would be achieved within 24 hours of plating. For electrophysiological studies, cells were removed from the culture flask by brief trypsinization and replated at low density onto glass cover slips. Cells were typically used for electrophysiological experiments within 24 to 72 h after plating. Cover slips containing HEK cells expressing hSCN3A or hSCN9A were placed in a bath on the stage of an inverted microscope and perfused (approximately 1 ml/min) with extracellular solution of the following composition: 138 mM NaCl, 2 mM CaCl2, 5.4 mM KCl, 1 mM MgCl2, 10 mM glucose, and 10 mM HEPES, pH 7.4, with NaOH. […] All recordings were made at room temperature (22-24° C.) using AXOPATCH 200B amplifiers and PCLAMP software (Axon Instruments, Burlingame, Calif.) or PatchXpress 7000 hardware and associated software (Axon Instruments, Burlingame, Calif.). hSCN3A or hSCN9A currents in HEK cells were measured using the whole-cell configuration of the patch-clamp technique (Hamill et al., 1981). […] As a result, voltage errors were negligible and no correction was applied. Current records were acquired at 20 to 50 KHz and filtered at 5 to 10 KHz. HEK cells stably transfected with hSCN3A or hSCN9A were viewed under Hoffman contrast optics and placed in front of an array of flow pipes emitting either control or compound-containing extracellular solutions. All compounds were dissolved in dimethyl sulfoxide to make 10 mM stock solutions, which were then diluted into extracellular solution to attain the final concentrations desired. […] The voltage-dependence of inactivation was determined by applying a series of depolarizing prepulses (8 sec long in 10 mV increments) from a negative holding potential. The voltage was then immediately stepped to 0 mV to assess the magnitude of the sodium current. Currents elicited at 0 mV were plotted as a function of prepulse potential to allow estimation of the voltage midpoint of inactivation (V1/2). Cells were then voltage clamped at the empirically determined V1/2. Compounds were tested for their ability to inhibit hSCN3A or hSCN9A sodium channels by activating the channel with a 20 msec voltage step to 0 mV following an 8 second conditioning prepulse to the empirically determined V1-2 (Table B). Compound effect (% inhibition) was determined by difference in current amplitude before and after application of test compounds. […] In some cases electrophysiological assays were conducted with PatchXpress 7000 hardware and associated software (Molecular Devices Corp) (Table B). All assay buffers and solutions were identical to those used in conventional whole-cell voltage clamp experiments described above. hSCN3A or hSCN9A containing cells were grown as above to 50%-80% confluency and harvested by trypsinization. Trypsinized cells were washed and resuspended in extracellular buffer at a concentration of 1×10^6 cells/ml. The onboard liquid handling facility of the PatchXpress was used for dispensing cells and application of test compounds. Determination of the voltage midpoint of inactivation was as described for conventional whole-cell recordings. Cells were then voltage-clamped to the empirically determined V1/2 and current was activated by a 20 msec voltage step to 0 mV.

T1 sequence (Q15858 whole entry): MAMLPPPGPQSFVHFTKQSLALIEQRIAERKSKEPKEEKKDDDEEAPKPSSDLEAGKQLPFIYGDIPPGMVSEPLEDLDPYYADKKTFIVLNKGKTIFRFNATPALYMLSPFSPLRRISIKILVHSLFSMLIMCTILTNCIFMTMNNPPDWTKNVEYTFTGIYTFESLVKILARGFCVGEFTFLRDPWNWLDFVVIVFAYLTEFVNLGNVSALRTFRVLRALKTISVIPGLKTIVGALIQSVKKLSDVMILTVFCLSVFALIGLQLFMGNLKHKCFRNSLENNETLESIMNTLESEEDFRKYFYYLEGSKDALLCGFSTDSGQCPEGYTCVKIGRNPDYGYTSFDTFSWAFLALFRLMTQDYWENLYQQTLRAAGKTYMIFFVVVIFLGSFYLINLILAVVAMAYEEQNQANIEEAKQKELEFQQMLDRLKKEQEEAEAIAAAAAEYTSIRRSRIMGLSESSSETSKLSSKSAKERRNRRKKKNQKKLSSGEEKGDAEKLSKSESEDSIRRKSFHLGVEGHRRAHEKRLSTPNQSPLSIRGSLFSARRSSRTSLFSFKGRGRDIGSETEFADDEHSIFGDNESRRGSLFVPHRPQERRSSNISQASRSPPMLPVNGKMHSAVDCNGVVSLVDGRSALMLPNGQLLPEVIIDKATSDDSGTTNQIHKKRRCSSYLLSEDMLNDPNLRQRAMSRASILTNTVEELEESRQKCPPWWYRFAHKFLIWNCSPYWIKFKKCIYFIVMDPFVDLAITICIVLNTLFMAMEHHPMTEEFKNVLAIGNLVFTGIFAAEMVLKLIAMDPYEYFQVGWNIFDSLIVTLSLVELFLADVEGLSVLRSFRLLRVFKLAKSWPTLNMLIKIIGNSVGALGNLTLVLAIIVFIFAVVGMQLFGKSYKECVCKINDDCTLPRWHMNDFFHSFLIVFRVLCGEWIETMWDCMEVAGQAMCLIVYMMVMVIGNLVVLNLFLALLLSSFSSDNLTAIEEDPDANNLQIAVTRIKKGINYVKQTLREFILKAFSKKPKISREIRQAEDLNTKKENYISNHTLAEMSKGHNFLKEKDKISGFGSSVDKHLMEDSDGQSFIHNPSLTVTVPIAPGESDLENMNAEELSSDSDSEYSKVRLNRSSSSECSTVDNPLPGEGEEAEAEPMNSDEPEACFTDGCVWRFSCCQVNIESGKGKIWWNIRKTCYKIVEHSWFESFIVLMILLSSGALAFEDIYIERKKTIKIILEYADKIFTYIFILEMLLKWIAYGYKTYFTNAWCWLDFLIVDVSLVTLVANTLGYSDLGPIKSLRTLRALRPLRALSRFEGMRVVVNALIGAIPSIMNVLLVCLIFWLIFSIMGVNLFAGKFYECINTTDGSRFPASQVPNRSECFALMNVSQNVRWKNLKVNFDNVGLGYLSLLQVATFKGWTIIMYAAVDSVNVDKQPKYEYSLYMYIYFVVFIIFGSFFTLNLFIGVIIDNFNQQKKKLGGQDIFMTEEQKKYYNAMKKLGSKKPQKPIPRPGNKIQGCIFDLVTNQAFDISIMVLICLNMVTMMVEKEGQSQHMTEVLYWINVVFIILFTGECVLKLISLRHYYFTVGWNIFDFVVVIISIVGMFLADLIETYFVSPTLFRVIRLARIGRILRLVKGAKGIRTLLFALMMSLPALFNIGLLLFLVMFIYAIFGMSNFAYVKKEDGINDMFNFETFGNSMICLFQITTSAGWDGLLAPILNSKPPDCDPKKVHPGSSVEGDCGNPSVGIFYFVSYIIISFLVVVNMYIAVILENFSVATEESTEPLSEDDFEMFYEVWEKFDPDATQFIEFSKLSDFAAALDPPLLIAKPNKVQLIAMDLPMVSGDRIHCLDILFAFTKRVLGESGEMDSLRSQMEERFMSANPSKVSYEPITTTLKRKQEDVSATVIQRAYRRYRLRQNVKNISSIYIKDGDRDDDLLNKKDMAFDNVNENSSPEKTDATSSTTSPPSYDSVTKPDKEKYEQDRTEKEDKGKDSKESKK

Row | Compound | IC50
1 | Cc1cc(Nc2ccc(S(=O)(=O)Nc3nccs3)nc2)n(-c2ccccc2)n1 [Compound 234, 5-(3-methyl-1-phenyl-1H-pyrazol-5-ylamino)-N-(thiazol-2-yl)pyridine-2-sulfonamide] | 2000 to 10000 nM
2 | O=S(=O)(Nc1nccs1)c1ccc(Nc2ncn(Cc3cccc(C(F)(F)F)c3)n2)c(F)c1 [Compound 200, 3-fluoro-N-(thiazol-2-yl)-4-(1-(3-(trifluoromethyl)benzyl)-1H-1,2,4-triazol-3-ylamino)benzenesulfonamide] | < 2000 nM
3 | Cc1cc(Nc2ccc(S(=O)(=O)Nc3ncc(Cl)s3)cc2)n(-c2ccccc2)n1 [Compound 163, N-(5-chlorothiazol-2-yl)-4-(3-methyl-1-phenyl-1H-pyrazol-5-ylamino)benzenesulfonamide] | 2000 to 10000 nM
4 | O=S(=O)(Nc1nccs1)c1ccc2nn(CCCCc3ccccc3)cc2c1 [Compound 279, 2-(4-phenylbutyl)-N-(thiazol-2-yl)-2H-indazole-5-sulfonamide] | 2000 to 10000 nM
5 | O=S(=O)(Nc1nccs1)c1ccc(Nc2c3c(nn2-c2ccccc2)CCC3)cc1F [Compound 174, 2-fluoro-4-(2-phenyl-2,4,5,6-tetrahydrocyclopenta[c]pyrazol-3-ylamino)-N-(thiazol-2-yl)benzenesulfonamide] | < 2000 nM
6 | O=S(=O)(Nc1nccs1)c1ccc(Nc2cc(C3CC3)nn2-c2ccccc2)cc1 [Compound 144, 4-(3-cyclopropyl-1-phenyl-1H-pyrazol-5-ylamino)-N-(thiazol-2-yl)benzenesulfonamide] | < 2000 nM
7 | O=S(=O)(Nc1nccs1)c1ccc(Nc2ccn(Cc3ccc(Cl)cc3F)n2)cc1F [Compound 197, 4-(1-(4-chloro-2-fluorobenzyl)-1H-pyrazol-3-ylamino)-2-fluoro-N-(thiazol-2-yl)benzenesulfonamide] | < 2000 nM
8 | CCc1nnc(NS(=O)(=O)c2ccc(Nc3cc(C)nn3-c3ccccc3)cc2F)s1 [Compound 246, N-(5-ethyl-1,3,4-thiadiazol-2-yl)-2-fluoro-4-(3-methyl-1-phenyl-1H-pyrazol-5-ylamino)benzenesulfonamide] | > 1000 nM
9 | Cc1cc(Nc2ccc(S(=O)(=O)Nc3nccs3)c(F)c2)n(-c2ccc(Cl)cc2)n1 [Compound 140, 4-(1-(4-chlorophenyl)-3-methyl-1H-pyrazol-5-ylamino)-2-fluoro-N-(thiazol-2-yl)benzenesulfonamide] | < 2000 nM
10 | Cc1nnc(NS(=O)(=O)c2ccc(Nc3ccn(Cc4ccc(Cl)cc4)n3)cc2F)s1 [Compound 251, 4-(1-(4-chlorobenzyl)-1H-pyrazol-3-ylamino)-2-fluoro-N-(5-methyl-1,3,4-thiadiazol-2-yl)benzenesulfonamide] | > 1000 nM
11 | Cc1cc(Nc2ccc(S(=O)(=O)Nc3nccs3)c(F)c2)n(-c2ccc(C(F)(F)F)cc2)n1 [Compound 170, 2-fluoro-4-(3-methyl-1-(4-(trifluoromethyl)phenyl)-1H-pyrazol-5-ylamino)-N-(thiazol-2-yl)benzenesulfonamide] | < 2000 nM
12 | Cc1ccc(Cc2cc(Nc3ccc(S(=O)(=O)Nc4nccs4)cc3F)n(C(C)(C)C)n2)cc1 [Compound 158, 4-(1-tert-butyl-3-(4-methylbenzyl)-1H-pyrazol-5-ylamino)-3-fluoro-N-(thiazol-2-yl)benzenesulfonamide] | < 2000 nM
13 | CC(C)(C)n1nc(Cc2cccc(Cl)c2)cc1Nc1ccc(S(=O)(=O)Nc2nccs2)cc1 [Compound 194, 4-(1-tert-butyl-3-(3-chlorobenzyl)-1H-pyrazol-5-ylamino)-N-(thiazol-2-yl)benzenesulfonamide] | 2000 to 10000 nM
14 | O=S(=O)(Nc1nccs1)c1ccc(Nc2cnn(Cc3ccc(Cl)cc3)c2)cn1 [Compound 231, 5-(1-(4-chlorobenzyl)-1H-pyrazol-4-ylamino)-N-(thiazol-2-yl)pyridine-2-sulfonamide] | 2000 to 10000 nM
15 | Cc1ccc(Cc2cc(Nc3ccc(S(=O)(=O)Nc4nccs4)cc3F)[nH]n2)cc1 [Compound 167, 3-fluoro-4-(3-(4-methylbenzyl)-1H-pyrazol-5-ylamino)-N-(thiazol-2-yl)benzenesulfonamide] | < 2000 nM
16 | Cn1nc(Cc2ccc(F)cc2F)cc1Nc1ccc(S(=O)(=O)Nc2nccs2)cc1 [Compound 139, 4-(3-(2,4-difluorobenzyl)-1-methyl-1H-pyrazol-5-ylamino)-N-(thiazol-2-yl)benzenesulfonamide] | < 2000 nM
17 | CC(C)(C)c1csc(Nc2ccc(S(=O)(=O)Nc3nccs3)nc2)n1 [Compound 116, 5-(4-tert-butylthiazol-2-ylamino)-N-(thiazol-2-yl)pyridine-2-sulfonamide] | > 1000 nM
18 | O=S(=O)(Nc1nccs1)c1ccc(Nc2nc3ccccc3s2)cc1 [Compound 117, 4-(benzo[d]thiazol-2-ylamino)-N-(thiazol-2-yl)benzenesulfonamide] | > 1000 nM
19 | Cc1cc(Nc2ccc(S(=O)(=O)Nc3nccs3)c(F)c2)n(-c2ccc(F)cc2)n1 [Compound 178, 2-fluoro-4-(1-(4-fluorophenyl)-3-methyl-1H-pyrazol-5-ylamino)-N-(thiazol-2-yl)benzenesulfonamide] | < 2000 nM
20 | O=S(=O)(Nc1nccs1)c1ccc(Nc2nc(-c3ccc(Cl)cc3)cs2)cc1F [Compound 104, 4-(4-(4-chlorophenyl)thiazol-2-ylamino)-2-fluoro-N-(thiazol-2-yl)benzenesulfonamide] | > 1000 nM
21 | Cn1nc(Cc2ccc(Cl)cc2)cc1Nc1ccc(S(=O)(=O)Nc2nccs2)cc1F [Compound 143, 4-(3-(4-chlorobenzyl)-1-methyl-1H-pyrazol-5-ylamino)-3-fluoro-N-(thiazol-2-yl)benzenesulfonamide] | < 2000 nM
22 | O=S(=O)(Nc1nccs1)c1ccc(Nc2ccn(Cc3ccc(F)cc3)n2)cc1F [Compound 217, 2-fluoro-4-(1-(4-fluorobenzyl)-1H-pyrazol-3-ylamino)-N-(thiazol-2-yl)benzenesulfonamide] | < 2000 nM
23 | Cc1cc(Nc2ccc(S(=O)(=O)Nc3nnc(C)s3)c(F)c2)n(-c2ccccc2)n1 [Compound 247, 2-fluoro-N-(5-methyl-1,3,4-thiadiazol-2-yl)-4-(3-methyl-1-phenyl-1H-pyrazol-5-ylamino)benzenesulfonamide] | > 1000 nM
24 | CCc1nnc(NS(=O)(=O)c2ccc(Nc3ccn(Cc4ccc(Cl)cc4)n3)cc2F)s1 [Compound 255, 4-(1-(4-chlorobenzyl)-1H-pyrazol-3-ylamino)-N-(5-ethyl-1,3,4-thiadiazol-2-yl)-2-fluorobenzenesulfonamide] | > 1000 nM
25 | CC(C)(C)c1ccc(OCc2csc(Nc3ccc(S(=O)(=O)Nc4nccs4)c(F)c3)n2)cc1 [Compound 102, 4-(4-((4-tert-butylphenoxy)methyl)thiazol-2-ylamino)-2-fluoro-N-(thiazol-2-yl)benzenesulfonamide] | < 2000 nM
26 | Cn1nc(Cc2ccc(C(F)(F)F)cc2)cc1Nc1ccc(S(=O)(=O)Nc2nccs2)cc1 [Compound 138, 4-(1-methyl-3-(4-(trifluoromethyl)benzyl)-1H-pyrazol-5-ylamino)-N-(thiazol-2-yl)benzenesulfonamide] | < 2000 nM
27 | COc1ccccc1-c1cc(Nc2ccc(S(=O)(=O)Nc3nccs3)c(F)c2)n(C)n1 [Compound 223, 2-fluoro-4-(3-(2-methoxyphenyl)-1-methyl-1H-pyrazol-5-ylamino)-N-(thiazol-2-yl)benzenesulfonamide] | < 2000 nM
28 | Cc1cc(Nc2ccc(S(=O)(=O)Nc3nccs3)c(F)c2)n(-c2ccc(F)cc2C(F)(F)F)n1 [Compound 187, 2-fluoro-4-(1-(4-fluoro-2-(trifluoromethyl)phenyl)-3-methyl-1H-pyrazol-5-ylamino)-N-(thiazol-2-yl)benzenesulfonamide] | < 2000 nM
